The record followed here is paper PMC11373624, “Development and preclinical characterization of a novel radiotheranostic EphA2-targeting bicyclic peptide” (Theranostics, 2024).

Series [1] has as its target T1, Mouse EphA2 (Mus musculus, UniProt Q03145).
T1 construct: Fc; purchased R&D Systems 639-A2
In words: SPR binding to mouse EphA2. Here is the method: (§1) The commercial source details of the recombinant proteins used in SPR were as follows: Human proteins: EphA1 (15789-H02H, Sino Biological), EphA3 (644-A3, R&D Systems), EphA6 (5606-A6, R&D Systems), EphA7 (6756-A7, R&D Systems). Mouse proteins: Mouse EphA2 was purchased from R&D Systems (Product number 639-A2). Mouse EphA2-Fc was resuspended as per manufacturer's recommendations and material was passed through a SuperdexS200 column to remove aggregates.
(§2) SPR experiments were performed on a Biacore 8K+ (Cytiva Life Sciences, USA) instrument, with methods matched for both human and mouse EphA2 protein. Protein was captured on to a Cytiva NTA sensor chip (Cytiva Life Sciences), via the expressed His-tag; this was followed by primary amine coupling chemistry to covalently immobilize the protein to the chip at 25°C. Initially the surface was injected with 0.5 mM NiCl2 for 2 minutes, followed by activation of the carboxymethyl dextran surface for 7 minutes using an injection of a 1:1 ratio of 0.4 M 1-ethyl-3-(3-dimethylaminopropyl) carbodiimide hydrochloride (EDC)/0.1 M N-hydroxy succinimide (NHS) at a flow rate of 10 µL/min.
Human EphA2 protein was captured to the Ni-NTA surface to a level of 200-300 RU and Mouse EphA2 to 500-800 RU; the residual activated groups were then blocked with a 7 minute injection of 1 M ethanolamine (pH 8.5):HBS-N (1:1). […]
(SPR reads the build-up and loss of mass on a sensor chip optically.)

For series [2] the following is noted: male, CD-1 (ICR), mouse, in vivo, iv, 1 mg/kg.
Experimental: In vivo pharmacokinetic studies were conducted in male CD-1 (ICR) mice, 7-9 weeks of age. […] Serial venous blood samples were taken at 5 min, 15 min, 30 min, 45 min, 1 h, 2 h and 4 h post injection. Samples were immediately transferred into low-binding microcentrifuge tubes containing 2 μL K2-EDTA (0.5 M) as anti-coagulant and kept on ice until processed by centrifugation at 4°C, 3200 g for 10 min. The resulting plasma was transferred into low-binding tubes and the protein precipitated by addition of methanol containing 0.5% Triton X-100 and internal standards (100 ng/mL each of labetalol, tolbutamide, verapamil, dexamethasone, glyburide and celecoxib). Samples were centrifuged at 4°C, 12000 g for 15 min and the supernatant removed, frozen over dry ice and stored at -70°C until LC-MS/MS analysis (Supplementary Materials - Methods). A calibration curve and quality control samples were prepared in the same matrix. Pharmacokinetic parameters were derived from noncompartmental analysis using the intravenous-noncompartmental model 201 (IV bolus input) in Phoenix WinNonlin version 8.3.5 (Certara, USA).
The target in series [3] is T2, Human EphA6 (Homo sapiens, UniProt Q9UF33).
T2 construct: purchased R&D Systems 5606-A6
T2 sequence (Q9UF33 23-1036): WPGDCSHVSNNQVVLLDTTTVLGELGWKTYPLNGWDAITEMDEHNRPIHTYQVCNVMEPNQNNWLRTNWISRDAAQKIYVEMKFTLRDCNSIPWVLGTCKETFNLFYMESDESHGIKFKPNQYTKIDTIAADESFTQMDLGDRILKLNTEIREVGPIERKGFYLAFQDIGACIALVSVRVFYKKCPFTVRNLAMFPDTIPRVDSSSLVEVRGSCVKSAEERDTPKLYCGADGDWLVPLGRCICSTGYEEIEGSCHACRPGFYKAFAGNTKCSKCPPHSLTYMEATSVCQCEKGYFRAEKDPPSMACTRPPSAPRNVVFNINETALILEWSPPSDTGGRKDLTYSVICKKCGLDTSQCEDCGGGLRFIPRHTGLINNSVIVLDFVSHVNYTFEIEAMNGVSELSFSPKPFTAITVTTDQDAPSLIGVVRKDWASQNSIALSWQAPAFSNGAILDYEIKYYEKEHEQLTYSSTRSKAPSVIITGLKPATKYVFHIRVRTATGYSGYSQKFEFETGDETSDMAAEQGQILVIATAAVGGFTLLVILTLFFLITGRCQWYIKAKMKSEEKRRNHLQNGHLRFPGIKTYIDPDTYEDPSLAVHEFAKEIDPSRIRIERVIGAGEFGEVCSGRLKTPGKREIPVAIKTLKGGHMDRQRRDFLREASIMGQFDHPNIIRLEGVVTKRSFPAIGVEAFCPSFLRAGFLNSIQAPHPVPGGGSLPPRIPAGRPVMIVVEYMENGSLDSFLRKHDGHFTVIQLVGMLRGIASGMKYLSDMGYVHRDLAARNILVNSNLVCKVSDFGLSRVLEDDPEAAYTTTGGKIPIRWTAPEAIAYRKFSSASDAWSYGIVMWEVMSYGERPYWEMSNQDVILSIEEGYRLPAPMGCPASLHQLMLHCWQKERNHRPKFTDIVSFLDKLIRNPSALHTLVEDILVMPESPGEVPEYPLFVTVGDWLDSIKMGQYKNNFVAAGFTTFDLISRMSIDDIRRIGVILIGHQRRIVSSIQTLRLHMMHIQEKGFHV
Briefly: SPR homologue panel, EphA6. The conditions noted are these: human EphA6, n=1; read-out: KD, no binding up to. Here is the method: as §1, §2
Peptide was prepared in PBS/0.05% Tween 20 with a final DMSO concentration of 0.5%. The top peptide concentration was 100 or 500 nM and 5 further 3-fold dilutions. […]

Series [4] has as its target T3, Human EphA2 (Homo sapiens, UniProt P29317).
T3 construct: Human EphA2 (residues 27-529) was cloned into pEXPR-IBA44; made in house; host or cells: HEK293 f/s cells
In words: SPR binding to human EphA2. Here is the method: Human EphA2 (residues 27-529) was cloned into pEXPR-IBA44 between the 5' NheI and 3' BsaI sites to make constructs expressing a BM40 signal sequence and C-terminal 6xHIS tag. For the expression and purification of the protein, HEK293 f/s cells at 1 x 10^6/mL in freestyle media (Thermo Fisher) were transfected with 1 µg DNA per million cells by PEI either 2:1 or 3:1 PEI:DNA ratio. On day 2 valproic acid was added to a 2.2 mM concentration. The supernatant was harvested 5 days post transfection and loaded on a 1 ml Ni-NTA agarose resin (Thermo Fisher) (wash buffer: 20 mM HEPES pH 7.6, 0.5 M NaCl, 5 mM imidazole, 0.01% Tween-20 buffer; elution buffer: 20 mM HEPES pH 7.6, 0.5 M NaCl, 300 mM imidazole, 0.01% Tween-20). The protein was concentrated to a volume of 2 mL, loaded onto an S-200 Superdex column (GE Healthcare) and eluted with 20 mM HEPES pH 7.6, 150 mM NaCl, 0.01% Tween-20 at a flow rate of 1 mL/min. Fractions were collected and those containing human EphA2 protein were concentrated for further use.
as §2
Human EphA2 protein was captured to the Ni-NTA surface to a level of 200-300 RU and Mouse EphA2 to 500-800 RU; the residual activated groups were then blocked with a 7 minute injection of 1 M ethanolamine (pH 8.5):HBS-N (1:1). Finally, the Ni-NTA surface was chelated with a 1-minute injection of 350 mM EDTA.
Peptide was prepared in PBS/0.05% Tween 20 with a final DMSO concentration of 0.5%. The top peptide concentration was 100 or 500 nM and 5 further 3-fold dilutions. The peptide was titrated over the chip using single cycle kinetics at 25°C at a flow rate of 75 µL/min with 60 second association and 4000 second dissociation. All data were double referenced for blank injections and reference surface using standard processing procedures. Data was characterized with a 1:1 kinetic binding model to determine kinetic rate constants ka (M^-1s^-1) and kd (s^-1) and equilibrium dissociation constant KD (nM). All data processing was performed using Cytiva Insight Evaluation (Cytiva Life Sciences, USA).

For series [5], the target named is Human EphA5 (Homo sapiens, UniProt P54756). In words: SPR homologue panel, EphA5. The conditions noted are these: human EphA5, n=1; read-out: KD, no binding up to.
Sequence of Human EphA5 (P54756 25-1037): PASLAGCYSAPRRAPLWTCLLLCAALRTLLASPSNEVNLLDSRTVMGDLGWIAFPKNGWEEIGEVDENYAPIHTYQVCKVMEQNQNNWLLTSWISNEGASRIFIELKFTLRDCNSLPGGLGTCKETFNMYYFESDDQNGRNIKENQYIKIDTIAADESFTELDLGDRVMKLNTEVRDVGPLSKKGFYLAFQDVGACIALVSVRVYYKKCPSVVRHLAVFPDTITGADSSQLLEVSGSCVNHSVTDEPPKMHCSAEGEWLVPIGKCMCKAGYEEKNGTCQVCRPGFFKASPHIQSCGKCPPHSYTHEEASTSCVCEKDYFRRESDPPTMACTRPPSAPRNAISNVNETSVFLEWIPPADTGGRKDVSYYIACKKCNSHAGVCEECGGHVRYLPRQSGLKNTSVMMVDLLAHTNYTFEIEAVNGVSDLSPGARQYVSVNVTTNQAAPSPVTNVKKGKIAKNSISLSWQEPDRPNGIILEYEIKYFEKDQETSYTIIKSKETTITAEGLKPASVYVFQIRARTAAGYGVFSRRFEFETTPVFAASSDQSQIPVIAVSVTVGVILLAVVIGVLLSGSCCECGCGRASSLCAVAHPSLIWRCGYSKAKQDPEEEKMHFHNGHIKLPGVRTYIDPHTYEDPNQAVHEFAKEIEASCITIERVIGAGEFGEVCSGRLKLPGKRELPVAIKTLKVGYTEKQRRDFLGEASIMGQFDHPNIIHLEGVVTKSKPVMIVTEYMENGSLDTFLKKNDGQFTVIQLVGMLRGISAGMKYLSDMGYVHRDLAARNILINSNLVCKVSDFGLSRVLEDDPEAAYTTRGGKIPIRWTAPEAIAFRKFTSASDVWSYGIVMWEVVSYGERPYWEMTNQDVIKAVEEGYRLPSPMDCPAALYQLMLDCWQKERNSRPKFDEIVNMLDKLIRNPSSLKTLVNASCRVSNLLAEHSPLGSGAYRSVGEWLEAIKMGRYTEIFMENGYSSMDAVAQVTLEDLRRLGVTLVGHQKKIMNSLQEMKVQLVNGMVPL

Numbered stars: 1 amine (or outer) side, 2 acyl side, 3 side chain; on linkers, the order of the positions; unused ones are H or OH. Bridge positions count the residues as written; N and C are the ends. Square brackets hold non-standard residues; d marks the D form. Peptide text beside a SMILES is read from it. * marks the point of attachment. DOTA = O=C(O)CN1CCN(CC(=O)O)CCN(CC(=O)*)CCN(CC(=O)O)CC1; TATA = O=C(CC[*:1])N1CN(C(=O)CC[*:2])CN(C(=O)CC[*:3])C1; Hyp = O=C(O)[C@@H]1C[C@@H](O)CN1; hArg = N=C(N)NCCCC[C@H](N)C(=O)O; Cba = N[C@@H](CC1CCC1)C(=O)O; βAla = NCCC(=O)O; Sar = CNCC(=O)O

T1 sequence (Q03145 with tags, fused parts or gaps limits assumed): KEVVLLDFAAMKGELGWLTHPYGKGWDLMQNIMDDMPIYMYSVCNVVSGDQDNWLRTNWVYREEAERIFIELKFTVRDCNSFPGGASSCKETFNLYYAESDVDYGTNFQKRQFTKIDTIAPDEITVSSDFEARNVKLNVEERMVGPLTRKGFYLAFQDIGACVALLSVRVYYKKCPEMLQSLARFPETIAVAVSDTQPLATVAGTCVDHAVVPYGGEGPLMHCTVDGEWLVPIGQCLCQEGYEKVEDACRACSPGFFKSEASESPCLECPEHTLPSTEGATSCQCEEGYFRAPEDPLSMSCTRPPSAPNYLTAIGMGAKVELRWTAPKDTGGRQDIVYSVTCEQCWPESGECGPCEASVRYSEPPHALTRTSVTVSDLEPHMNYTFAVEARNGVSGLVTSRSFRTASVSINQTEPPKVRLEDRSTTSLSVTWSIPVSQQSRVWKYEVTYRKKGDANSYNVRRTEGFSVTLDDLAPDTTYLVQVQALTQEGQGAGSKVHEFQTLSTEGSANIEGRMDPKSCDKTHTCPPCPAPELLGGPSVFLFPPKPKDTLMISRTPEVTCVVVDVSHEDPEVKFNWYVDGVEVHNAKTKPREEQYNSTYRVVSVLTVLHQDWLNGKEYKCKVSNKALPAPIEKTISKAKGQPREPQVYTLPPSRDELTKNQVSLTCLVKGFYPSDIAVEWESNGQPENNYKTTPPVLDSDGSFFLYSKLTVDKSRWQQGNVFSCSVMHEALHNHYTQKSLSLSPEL
T3 sequence (P29317 27-529): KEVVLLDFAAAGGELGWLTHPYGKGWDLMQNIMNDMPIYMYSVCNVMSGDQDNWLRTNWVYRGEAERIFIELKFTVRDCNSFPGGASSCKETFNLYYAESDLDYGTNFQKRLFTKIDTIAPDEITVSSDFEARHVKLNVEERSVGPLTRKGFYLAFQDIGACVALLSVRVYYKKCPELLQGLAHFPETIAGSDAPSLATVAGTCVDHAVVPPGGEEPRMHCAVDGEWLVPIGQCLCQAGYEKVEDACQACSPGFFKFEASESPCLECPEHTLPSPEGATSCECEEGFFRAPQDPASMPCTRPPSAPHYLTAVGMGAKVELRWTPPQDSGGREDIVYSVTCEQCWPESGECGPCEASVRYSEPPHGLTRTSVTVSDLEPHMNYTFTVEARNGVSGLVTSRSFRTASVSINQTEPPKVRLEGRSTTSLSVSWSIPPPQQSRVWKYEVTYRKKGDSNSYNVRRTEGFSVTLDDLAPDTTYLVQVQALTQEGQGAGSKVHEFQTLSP

One may read the Kd as the free concentration of one partner at which half of the binding sites on the other are occupied at equilibrium, for simple one-to-one binding. As for `CC(C)C[C@@H]1NC(=O)[C@@H]2CSCCC(=O)N3CN(CN(C3)C(=O)CCSC[C@H](NC(=O)[C@H](CC(=O)O)NC(=O)[C@H](CCCCNC(=N)N)NC(=O)[C@H](C)NC(=O)CN(C)C(=O)CN(C)C(=O)CN(C)C(=O)CN(C)C(=O)CN(C)C(=O)CN(C)C(=O)CN(C)C(=O)CN(C)C(=O)CN(C)C(=O)CN(C)C(=O)CCNC(=O)CN3CCN(CC(=O)O)CCN(CC(=O)O)CCN(CC(=O)O)CC3)C(=O)N3C[C@H](O)C[C@H]3C(=O)N[C@@H](CC3CCC3)C(=O)N[C@@H](C(C)C)C(=O)N[C@@H](CC(N)=O)C(=O)N3CCC[C@H]3C(=O)N[C@@H](CC(C)C)C(=O)N2)C(=O)CCSC[C@@H](C(N)=O)NC(=O)[C@H](CCCCNC(=N)N)NC(=O)[C@H](Cc2c[nH]c3ccccc23)NC(=O)[C@@H](CC(=O)O)NC(=O)[C@@H]2CCCN2C(=O)[C@H](Cc2c[nH]cn2)NC1=O` [BCY18469, [-DOTA]-[B-Ala]-[Sar10]-Ala-[HArg]-Asp-Cys-[HyP]-[Cba]-Val-Asn-Pro-Leu-Cys-Leu-His-Pro-[dAsp]-Trp-[HArg]-Cys-CONH2] ({DOTA-βAla}-[Sar][Sar][Sar][Sar][Sar][Sar][Sar][Sar][Sar][Sar]A[hArg]DC[Hyp][Cba]VNPLCLHP[dD]W[hArg]C-NH2; linker 14-21-28 via TATA), the Kd is 3.82 ± 0.56 nM in series [1] (mouse EphA2, 25°C); over 5000 nM in series [3]; 1.93 ± 0.35 nM in series [4] (human EphA2, 25°C, read-out: KD (SPR)); over 5000 nM in series [5]. In addition, the kon is 419000 M⁻¹ s⁻¹ in series [1] (mouse EphA2, n=2, read-out: ka) and 1.82e+06 M⁻¹ s⁻¹ in series [4] (human EphA2, n=2, read-out: ka). Further, the CLp in series [2] was 24 mL/min/kg.
